Experimental data: US20150290227A1, “USE OF HAMAMELITANNIN FOR THE TREATMENT OF STAPHYLOCOCCAL INFECTIONS” (priority 2006, published 2015)
Values joined by “and” are separate entries in the source; they are usually repeats but may differ in a detail not shown here. Equal values may be shown once.

Legend:
S. aureus strain = experiment: Bacterial growth in vitro / MIC; format: cell-based
RNAIII = RNAIII production in S. aureus cells containing rnaiii::blaZ fusion construct, measured as β-lactamase activity; format: cell-based; details: for inhibition of RNAIII synthesis (in words): 0-50 μg
Experimental: RNAIII levels were determined as β-lactamase activity (reporter gene product) and denoted as Vmax.
To test if hamamelitannin is a quorum sensing inhibitor and thus suppresses RNAIII synthesis, 2×10^7 cells were incubated with increasing amounts (0-50 μg) of hamamelitannin (or RIP). RNAIII levels were measured as β-lactamase activity as a reporter gene product by the addition of nitrocefin as substrate. […] Hamamelitannin (2′,5-di-O-galloyl hamamelose) was purchased from Chromadex, Inc. (93% purity, as assessed by HPLC by the manufacturer). Hamamelitannin was dissolved in water at 25 mg/ml and stored at −70° C. until use.

S. aureus cells = experiment: S. aureus cell attachment in vitro in polystyrene plates; format: cell-based; details: for reduction of cell attachment (in words): 0-50 μg, 3 hrs at 37° C., OD 595 nm; for amount most effective in reducing cell attachment: converted dose
Experimental: Attached cells were stained and OD595nm was determined.
To test for the effect of hamamelitannin on bacterial attachment in vitro, S. aureus cells were incubated with 0-50 μg hamamelitannin or RIP in polystyrene plates for 3 hrs at 37° C. Adherent bacteria were stained with methylene blue and OD determined at 595 nm.

MRSE [1] = experiment: Rat graft-associated infection, bacteria pre-incubated with agent, MRSE challenge; format: in vivo, S. epidermidis; details: for amount that could prevent an infection: infection caused by 2×10^7 CFU MRSE, rat graft
Experimental: (§1) FIG. 6 is a graph presentation of the effectiveness of bacterial graft-associated infection inhibition by hamamelitannin and RIP against challenge by methicillin resistant S. aureus and S. epidermidis (MRSA and MRSE) using pre-incubation.
(§2) To measure the amount of hamamelitannin necessary to prevent device-associated infections, bacteria (2×10^7 MRSA or MRSE) were pre-incubated with increasing amounts of hamamelitannin for 30 min at room temperature. Grafts were implanted and rats were challenged with the pre-incubated bacteria. Seven days later the graft was removed and bacterial load determined. […] No bacteria was found when either MRSA or MRSE were pre-incubated with >20 μg hamamelitannin.
(§3) In the testing reflected in FIG. 6 and summarized above, to ascertain the amount of hamamelitannin/bacteria necessary to potentially prevent device-associated infections, bacteria (2×10^7 MRSE or MRSA in 150 μl saline) were pre-incubated with hamamelitannin (0, 0.5, 10, 20, 30, 50 μg) for 30 min at room temperature, as noted. Grafts were implanted and rats were challenged with the pre-incubated bacteria. Seven days later the graft was removed and bacterial load determined. […] When the bacteria was treated with 0.5, 10, 20, 30 or 50 μg hamamelitannin, MRSE load was 8.4×10^3±2.2×10^3 for 0.5 μg and 8.7×10^1±6.6×10^1 for 10 μg.

MRSA [2] = experiment: Rat graft-associated infection, bacteria pre-incubated with agent, MRSA challenge; format: in vivo, S. aureus; details: for amount that could prevent an infection: infection caused by 2×10^7 CFU MRSA, rat graft
Experimental: as §1, §2, §3

MRSE [3] = experiment: Rat graft-associated infection, local treatment (graft soak), MRSE challenge; format: in vivo, S. epidermidis; details: for bacterial load on graft: day 7
Experimental: (§4) FIG. 7 is a graph presentation of the effectiveness of bacterial graft-associated infection inhibition by hamamelitannin against challenge by MRSA and MRSE using local treatment (graft soak).
(§5) To test if hamamelitannin could inhibit graft-associated infection, grafts (1 cm^2 collagen coated Dacron) were soaked for 1 h in increasing hamamelitannin concentrations. The graft was then implanted into the animal, and bacteria injected onto the graft. Seven days later the graft was removed and bacteria on the graft counted.

MRSA [4] = experiment: Rat graft-associated infection, local treatment (graft soak), MRSA challenge; format: in vivo, S. aureus
Experimental: as §4, §5

[5] = tested on: tumor necrosis factor α-mediated endothelial cell death; details: cited from earlier work
[6] = tested on: cell damage induced by peroxides or UVB radiation; details: cited from earlier work

In the case of `CC1(C)S[C@@H]2[C@H](NC(=O)[C@H](N)c3ccccc3)C(=O)N2[C@H]1C(=O)O` [ampicillin, reference compound], the “MIC of ampicillin (reference drug)” value (S. aureus strain; same S. aureus strain) is reported as 0.2 uM per 1000 bacteria.
With `O=C(OC[C@H]1OC(O)[C@@](O)(COC(=O)c2cc(O)c(O)c(O)c2)[C@@H]1O)c1cc(O)c(O)c(O)c1` (stereo partly drawn) [hamamelitannin, 2′,5-di-O-galloyl hamamelose] the “minimal dose inhibiting RNAIII production” value (RNAIII) was 0.2 picomoles per 1000 bacteria, the “inhibition of RNAIII synthesis (in words)” value (RNAIII; 2×10^7 cells, 2.5 hrs) was “inhibits RNAIII synthesis in a dose dependent manner” and the “dose most effective in inhibiting RNAIII synthesis” value (RNAIII; 2×10^7 cells, 2.5 hrs) was > 2 μg/2×10^7 bacteria. For the same molecule, the “reduction of cell attachment (in words)” value (S. aureus cells) was “reduced cell attachment in a dose-dependent manner”, the “amount most effective in reducing cell attachment” value (S. aureus cells) was 0.4 picomoles/10^3 bacteria and the “amount that could prevent an infection” value (MRSE [1]) was 10 µg. For the same molecule, the “amount at which no bacteria was found on graft” value (MRSE [1]; rat, 2×10^7 MRSE pre-incubated 30 min, graft removed after seven days) was > 20 µg, the “MRSE load on graft” value (MRSE [1]; rat, 2×10^7 MRSE pre-incubated with 0.5 μg, day 7) was 8.4×10^3±2.2×10^3 CFU/ml and the “MRSE load on graft” value (MRSE [1]; rat, 2×10^7 MRSE pre-incubated with 10 μg, day 7) was 8.7×10^1±6.6×10^1 CFU/ml. The “MRSE graft infection (in words)” value (MRSE [1]; rat, 2×10^7 MRSE pre-incubated with 20, 30 or 50 μg, day 7) was “No sign of infection”, the “amount that could prevent an infection” value (MRSA [2]) was 10 µg and the “amount at which no bacteria was found on graft” value (MRSA [2]; rat, 2×10^7 MRSA pre-incubated 30 min, graft removed after seven days) was > 20 µg. The “MRSA load on graft” value (MRSA [2]; rat, 2×10^7 MRSA pre-incubated with 0.5 μg, day 7) was 8.8×10^3±2.3×10^3 CFU/mL, the “MRSA load on graft” value (MRSA [2]; rat, 2×10^7 MRSA pre-incubated with 10 μg, day 7) was 3.6×10^2±0.8×10^2 CFU/mL and the “MRSA graft infection (in words)” value (MRSA [2]; rat, 2×10^7 MRSA pre-incubated with 20, 30 or 50 μg, day 7) was “No sign of infection”. The “bacterial load on graft” value (MRSE [3]; MRSE, graft pre-soaked with 0.5 mg/L) was 9.0×10^4±2.6×10^4 CFU/mL, the “bacterial load on graft” value (MRSE [3]; MRSE, graft soaked with 10 mg/L) was 2.1×10^3±0.2×10^3 CFU/mL and the “bacterial load on graft” value (MRSE [3]; MRSE, graft soaked with 30 or 50 mg/L) was < 10 CFU/mL. The “pre-soak concentration at which grafts show no signs of infection” value (MRSE [3]; challenge 2×10^7, MRSE) was “at least 30 mg/L and ~60 uM”, the “decrease in bacterial load versus untreated control (in words)” value (MRSE [3]; grafts presoaked 1 h, 0-50 mg/L, MRSE) was “Significant (p<0.05) decrease in bacterial load” and the “bacterial load on graft (in words)” value (MRSA [4]; MRSA, graft pre-soaked in 30 or 50 mg/L, day 7) was “no bacterial load was detected”. The “bacterial load on graft” value (MRSA [4]; MRSA, graft soaked with 0.5 mg/L, day 7) was 9.3×10^4±2.8×10^4 CFU/mL, the “bacterial load on graft” value (MRSA [4]; MRSA, graft soaked with 10 mg/L, day 7) was 2.6×10^3±0.3×10^3 CFU/mL and the “bacterial load on graft” value (MRSA [4]; MRSA, graft soaked with 20 mg/L, day 7) was 3.7×10^1±1.1×10^1 CFU/mL. For the same molecule, the “pre-soak concentration at which grafts show no signs of infection” value (MRSA [4]; challenge 2×10^7, MRSA) was “at least 30 mg/L and ~60 uM”, the “decrease in bacterial load versus untreated control (in words)” value (MRSA [4]; grafts presoaked 1 h, 0-50 mg/L, MRSA) was “Significant (p<0.05) decrease in bacterial load” and the “concentration affecting bacterial growth in vitro (no effect even at concentrations as high as)” value (S. aureus strain; S. aureus) was > 2.5 mM per 1000 bacteria. For the same molecule, the “highest concentration without effect on growth relative to the MIC of ampicillin” value (S. aureus strain; same S. aureus strain) was 13,000 times, the “concentration inhibiting tumor necrosis factor α-mediated endothelial cell death” value [5] was “less than 100 uM” and the “minimum concentration with high protective activity against cell damage” value [6] was 50 µM.
For “RIP: RNAIII-inhibiting peptide, sequence YSPWTNF, antagonist of RAP [reference compound]”, the “minimal dose inhibiting RNAIII production” value (RNAIII) was 0.5 picomoles per 1000 bacteria, the “inhibition of RNAIII synthesis (in words)” value (RNAIII; 2×10^7 cells, 2.5 hrs) was “inhibited RNAIII production in a dose dependent manner” and the “dose most effective in inhibiting RNAIII synthesis” value (RNAIII; 2×10^7 cells, 2.5 hrs) was 8 μg/2×10^7 bacteria. For the same molecule, the “dose most effective in inhibiting RNAIII synthesis” value (RNAIII; converted dose) was 0.5 picomoles/10^3 bacteria, the “reduction of cell attachment (in words)” value (S. aureus cells) was “reduced cell attachment in a dose-dependent manner” and the “amount most effective in reducing cell attachment” value (S. aureus cells) was 0.4 picomoles/10^3 bacteria. For the same molecule, the “amount that could prevent an infection” value (MRSE [1]) was 10 µg and the “amount that could prevent an infection” value (MRSA [2]) was 10 µg.
